# Experimental data: ChEMBL document CHEMBL5046244, “Targeted Covalent Inhibition of Small CTD Phosphatase 1 to Promote the Degradation of the REST Transcription Factor in Human Cells” (J Med Chem, 2022)
# Active and inactive are the calls of the source. No cut-off for these calls is given here.
# Target: T1, Carboxy-terminal domain RNA polymerase II polypeptide A small phosphatase 1 (Homo sapiens) (UniProt Q9GZU7)
# T1 sequence (whole entry): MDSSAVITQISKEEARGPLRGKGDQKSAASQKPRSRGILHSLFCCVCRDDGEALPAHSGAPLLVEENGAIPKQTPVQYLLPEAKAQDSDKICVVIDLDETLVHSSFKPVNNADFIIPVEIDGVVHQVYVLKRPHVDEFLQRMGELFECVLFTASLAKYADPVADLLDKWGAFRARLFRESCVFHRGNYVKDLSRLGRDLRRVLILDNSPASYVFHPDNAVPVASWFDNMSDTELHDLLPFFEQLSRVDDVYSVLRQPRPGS
# Test: Binding affinity to wild type human SCP1 assessed as covalent bond formation at 50 uM incubated for 18 hrs
smiles,measurement,value
C#CCCC(=O)NCCCNC(=O)C1=Cc2ccccc2S1(=O)=O,Activity,inactive
